Entries after “also recorded” stand apart in the source; their conditions may differ. Read-outs that look alike come from different tables or passages of the source.
Tests used:
[1] = system: high-level α-synuclein expressing cell lines WM983-B; experiment: Initial screen of sixteen compounds from the DPP library; assay type: cell-based, human
[2] = system: WM983-B human melanoma xenografts; experiment: Melanoma xenograft study: H&E and LC3 staining of tumor sections; assay type: in vivo, nude mice; conditions: food pellets with compound for seven days; vs control tumor
Text: (§1) To determine whether the DPP compound, anle138b, when administered systemically to human MGP melanoma cells grown as subcutaneous tumors in nude mice, would reach the tumors, we performed the following study. A nude mouse, bearing high-level α-synuclein-expressing (MGP) WM983-B human melanoma xenografts on its lower right and on its lower left dorsal side, received, for seven days, food pellets mixed with anle138b. A second nude mouse, also bearing WM983-B tumors on its lower right as well as on its lower left dorsal side, received, for seven days, the same type of food pellets not containing anle138b. After the mice were sacrificed, we performed the following analyses on the post-mortem resected and thereafter, cryopreserved tumors.
4-week-old, female nude mice (CAnN.Cg-Foxn1nu/Crl) (Charles River Laboratories, Research Models and Services, Germany GmbH, Sulzfeld, Germany) were injected subcutaneously on their lower right as well as lower left dorsal side with WM983-B (MGP) human melanoma cells (1×10^7 cells per side). When the tumors had reached a size of 2.3 to 3.0 mm in any direction, the normal food pellet diet of one of the animals was replaced with food pellets mixed with anle138b [2 g of anle138b/kg of food pellets] […]

WM983-A melanoma cells = experiment: Melanoma cell proliferation analysis (hemocytometer counting); assay type: cell-based, human
Text: To assess the possible impact of anle138b as well as anle138c on the different melanoma cell lines, WM983-A, WM983-B and SK-MEL-5, we treated them with increasing doses of either compound, dissolved in dimethyl sulfoxide (DMSO), and added to serum-free culture medium. […] We also observed that treatment with anle138b caused a more rapid morphological change than anle138c. To determine whether the effect of the two anle compounds was related to the amount of α-synuclein produced by the cells, we compared the proliferation of the (VGP) WM983-A high-level and the (RGP/VGP) WM1158 low-level α-synuclein-producing melanoma cells over a period of 96 hr, with replenishment of each anle compound at 48 hr (FIGS. 8A and B).
To compare how rapidly anle138b affected the proliferation of melanoma cells, expressing α-synuclein at a high level, we treated the melanoma cell lines, WM983-A (VGP) and WM983-B (MGP), for 24, 48 or 72 hr with 10 μM of anle138b, with replenishment of the compound (10 μM) at 48 hr.
10 or 30 mM stock solutions of anle138b or anle138c were made in DMSO. […] Proliferation of melanoma cells that had received DMSO only, or were treated with anle138b was determined by counting the cells with a hemocytometer.

[3] = Pharmacokinetic (HPLC) analysis of resected xenograft tumors; assay type: in vivo, nude mice; conditions: female, CAnN.Cg-Foxn1nu/Crl nude, mouse, tumor (WM983-B human melanoma xenograft, oral, 2 g of anle138b/kg of food pellets), food pellets with 2 g/kg for seven days, read-out: level in the tumor
Text: as §1, with “tumors. […]” for “tumors.”
Cryopreserved WM983-B human melanoma xenograft tissues were brought to 4° C. prior to their transfer into Precellys CKMix—2 mL tissue homogenizing tubes, and homogenization in 0.5 to 1.00 ml acetonitrile using a Precellys Evolution Super homogenizer (Bertin Instruments, Montigny-le-Bretonneux, France). […] The effluent was monitored for UV absorption at 260 nm. Samples were quantitated using peak area ratio of compounds to external standard.

WM983-B melanoma cells = experiment: Autophagy: LC3 immunofluorescence; assay type: cell-based, human
Protocol: We observed a clear effect of the anle compounds on the autophagy pathway of the melanoma cells. […] Following addition of anle138c, the effect was seen later with levels of 8% at 24 hr and 78% after 96 hr.
Autophagy. WM983-B and SK-MEL-5 cells that for 24 or 48 hr were treated with anle138 or had received DMSO only were fixed for 20 min with 3.7% PFA, permeabilized, blocked, and probed with an anti-LC3B [clone 2G6] antibody (nanoTools Antikörpertechnik GmbH & Co. KG, Teningen, Germany), followed by a donkey anti-mouse Alexa-488 secondary antibody and Draq5 DNA counterstain. Confocal image stacks were obtained with a 63×NA 1.2 objective on a Zeiss LSM 510 Meta confocal microscope.

SMILES: Brc1cccc(-c2cc(-c3ccc4c(c3)OCO4)n[nH]2)c1 [anle138b, 5-(3-Bromophenyl)-3-(3,4-methylenedioxyphenyl)-1H-pyrazole]
- effect on WM983-B cells in initial screen [1]: significantly affected; also recorded: strongest and most rapid effect
- LC3-positive cells in tumor sections [2]: more LC3-positive cells
- morphology of tumor cells (H&E) [2]: arranged in a scattered pattern with focally pronounced disturbances in the tissue's architecture
- proliferation of residual cells after removal of compound (WM983-A melanoma cells; removal of compound-containing medium at 96 hr, then serum-free medium): not able to proliferate again
- proliferation (WM983-A melanoma cells; single dose of 10 μM, 24 hr): inhibited the proliferation of both cell lines to a significant extent
- concentration at 7 days ([3]; tumor from left dorsal side (218 mg)): 110 µM
- concentration at 7 days ([3]; tumor from right dorsal side (57 mg)): 125 µM
- cells with punctuate upregulation of LC3 (WM983-B melanoma cells; 24 hr, cells still attached): about 60%
- cells with punctuate upregulation of LC3 (WM983-B melanoma cells; 48 hr, cells remaining on the dish): 95%

From patent US11180518B2, “Phenyl-heterocycle-phenyl derivatives for use in the treatment or prevention of melanoma” (MAX-PLANCK-GESELLSCHAFT ZUR FÖRDERUNG DER WISSENSCHAFTEN …, priority 2017, dated 2021)
